Reference: patent publication US9376418B2, “Substituted pyridine spleen tyrosine kinase (SYK) inhibitors” (Merck Sharp & Dohme Corp., priority 2012, dated 2016)

molecular target: T1, recombinant human GST-SYK (Homo sapiens, UniProt P43405); experiment: Homogeneous Time-Resolved Fluorescence (HTRF) assay for the recombinant human Syk enzyme; format: biochemical; details: HTRF assay, recombinant human GST-SYK; IC50 given as class symbols; read-out: rhSYK Activity
T1 construct: purchased Carna Biosciences 08-176
Summary of the method: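 GST-hSYK ([…]) was preincubated with inhibitor (0.1% DMSO final) for 10 minutes at room temperature in 15 mM Tris-HCl pH 7.5, 0.01% tween 20, 2 mM DTT. Biotinylated peptide (250 nM), 5 mM magnesium and 25 μM ATP started a 45-minute room-temperature reaction, read by time-resolved fluorescence.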

Row | IC50 [nM] | Compound
1 | < 100 | CC(=O)Nc1cc(Nc2nccc(C(F)(F)F)n2)cc(-c2ccc(N3CCNC(=O)C3)nc2)c1 [Example 7.5, N-(3-[6-(3-oxopiperazin-1-yl)pyridin-3-yl]-5-{[4-(trifluoromethyl)pyrimidin-2-yl]amino}phenyl)acetamide]
2 | < 100 | Cc1cc(Nc2nccc(C(F)(F)F)n2)cc(-c2ccc(N3CC[C@H]3C(=O)O)nc2)c1 [Example 7.6, (2S)-1-[5-(3-methyl-5-{[4-(trifluoromethyl)pyrimidin-2-yl]amino}phenyl)pyridin-2-yl]azetidine-2-carboxylic acid]
3 | < 100 | Cc1cc(Nc2nccc(C(F)(F)F)n2)cc(-c2ccc(NC(C)(C)C(=O)O)nc2)c1 [Example 7.7, 2-methyl-N-[5-(3-methyl-5-{[4-(trifluoromethyl)pyrimidin-2-yl]amino}phenyl)pyridin-2-yl]alanine]
4 | 100 to 1000 | Cc1cc(Nc2nccc(C(F)(F)F)n2)cc(-c2ccc(N3CCCC4(CCCNC4=O)C3)nc2)c1 (stereo not shown) [Example 7.9, 8-[5-(3-methyl-5-{[4-(trifluoromethyl)pyrimidin-2-yl]amino}phenyl)pyridin-2-yl]-2,8-diazaspiro[5.5]undecan-1-one]
5 | 100 to 1000 | Cc1cc(Nc2nccc(C(F)(F)F)n2)cc(-c2ccc(N3CCC4(CCCCN4)CC3)nc2)c1 [Example 7.10, N-{3-[6-(1,9-diazaspiro[5.5]undec-9-yl)pyridin-3-yl]-5-methylphenyl}-4-(trifluoromethyl)pyrimidin-2-amine]
6 | 100 to 1000 | Cc1cc(Nc2nccc(C(F)(F)F)n2)cc(-c2ccc(N3CCCC4(CCCO4)C3)nc2)c1 (stereo not shown) [Example 7.11, N-{3-methyl-5-[6-(1-oxa-7-azaspiro[4.5]dec-7-yl)pyridin-3-yl]phenyl}-4-(trifluoromethyl)pyrimidin-2-amine]
7 | 100 to 1000 | Cc1cc(Nc2nccc(C(F)(F)F)n2)cc(-c2ccc(N3CCCC4(C3)OCCO4)nc2)c1 [Example 7.12, N-{3-[6-(1,4-dioxa-7-azaspiro[4.5]dec-7-yl)pyridin-3-yl]-5-methylphenyl}-4-(trifluoromethyl)pyrimidin-2-amine]
8 | 100 to 1000 | Cc1cc(Nc2nccc(C(F)(F)F)n2)cc(-c2ccc(N3CCCC4(CCNC4=O)C3)nc2)c1 (stereo not shown) [Example 7.13]
9 | 100 to 1000 | Cc1cc(Nc2nccc(C(F)(F)F)n2)cc(-c2ccc(N3CCCC4(CCOC4=O)C3)nc2)c1 (stereo not shown) [Example 7.14, 7-[5-(3-methyl-5-{[4-(trifluoromethyl)pyrimidin-2-yl]amino}phenyl)pyridin-2-yl]-2-oxa-7-azaspiro[4.5]decan-1-one]
10 | 100 to 1000 | Cc1cc(Nc2nccc(C(F)(F)F)n2)cc(-c2ccc(N3CCC4(CCN(C)C4=O)CC3)nc2)c1 [Example 7.15, 2-methyl-8-[5-(3-methyl-5-{[4-(trifluoromethyl)pyrimidin-2-yl]amino}phenyl)pyridin-2-yl]-2,8-diazaspiro[4.5]decan-1-one]
11 | < 100 | Cc1cc(Nc2nccc(C(F)(F)F)n2)cc(-c2ccc(NCC3CCC(=O)N3)nc2)c1 (stereo not shown) [Example 7.16, 5-({[5-(3-methyl-5-{[4-(trifluoromethyl)pyrimidin-2-yl]amino}phenyl)pyridin-2-yl]amino}methyl)pyrrolidin-2-one]
12 | < 100 | Cc1cc(Nc2nccc(C(F)(F)F)n2)cc(-c2ccc(NCC(O)C(F)F)nc2)c1 (stereo not shown) [Example 7.17, 1,1-difluoro-3-{[5-(3-methyl-5-{[4-(trifluoromethyl)pyrimidin-2-yl]amino}phenyl)pyridin-2-yl]amino}propan-2-ol]
13 | < 100 | Cc1cc(Nc2nccc(C(F)(F)F)n2)cc(-c2ccc(NCCc3cnccn3)nc2)c1 [Example 7.18, N-(3-methyl-5-{6-[(2-pyrazin-2-ylethyl)amino]pyridin-3-yl}phenyl)-4-(trifluoromethyl)pyrimidin-2-amine]
14 | 100 to 1000 | Cc1cc(Nc2nccc(C(F)(F)F)n2)cc(-c2ccc(NC(C)c3ccccn3)nc2)c1 (stereo not shown) [Example 7.19, N-(3-methyl-5-{6-[(1-pyridin-2-ylethyl)amino]pyridin-3-yl}phenyl)-4-(trifluoromethyl)pyrimidin-2-amine]
15 | 100 to 1000 | Cc1cc(Nc2nccc(C(F)(F)F)n2)cc(-c2ccc(NCc3cnn(C)c3)nc2)c1 [Example 7.20, N-[3-methyl-5-(6-{[(1-methyl-1H-pyrazol-4-yl)methyl]amino}pyridin-3-yl)phenyl]-4-(trifluoromethyl)pyrimidin-2-amine]
16 | < 100 | Cc1cc(Nc2nccc(C(F)(F)F)n2)cc(-c2ccc(NCc3ncnn3C)nc2)c1 [Example 7.21, N-[3-methyl-5-(6-{[(1-methyl-1H-1,2,4-triazol-5-yl)methyl]amino}pyridin-3-yl)phenyl]-4-(trifluoromethyl)pyrimidin-2-amine]
17 | < 100 | Cc1cc(Nc2nccc(C(F)(F)F)n2)cc(-c2ccc(NC3CCNC3=O)nc2)c1 (stereo not shown) [Example 7.22, 3-{[5-(3-methyl-5-{[4-(trifluoromethyl)pyrimidin-2-yl]amino}phenyl)pyridin-2-yl]amino}pyrrolidin-2-one]

Row | IC50 [nM] | Compound
18 | < 100 | CCC(CO)Nc1ccc(-c2cc(C)cc(Nc3nccc(C(F)(F)F)n3)c2)cn1 (stereo not shown) [Example 7.23, 2-{[5-(3-methyl-5-{[4-(trifluoromethyl)pyrimidin-2-yl]amino}phenyl)pyridin-2-yl]amino}butan-1-ol]
19 | 100 to 1000 | Cc1cc(Nc2nccc(C(F)(F)F)n2)cc(-c2ccc(NCCc3cnc[nH]3)nc2)c1 [Example 7.24, N-[3-(6-{[2-(1H-imidazol-4-yl)ethyl]amino}pyridin-3-yl)-5-methylphenyl]-4-(trifluoromethyl)pyrimidin-2-amine]
20 | < 100 | Cc1cc(Nc2nccc(C(F)(F)F)n2)cc(-c2ccc(NCc3cn(C)cn3)nc2)c1 [Example 7.25, N-[3-methyl-5-(6-{[(1-methyl-1H-imidazol-4-yl)methyl]amino}pyridin-3-yl)phenyl]-4-(trifluoromethyl)pyrimidin-2-amine]
21 | < 100 | Cc1cc(Nc2nccc(C(F)(F)F)n2)cc(-c2ccc(NCCN)nc2)c1 [Example 7.25A, N-[5-(3-methyl-5-{[4-(trifluoromethyl)pyrimidin-2-yl]amino}phenyl)pyridin-2-yl]ethane-1,2-diamine]
22 | < 100 | Cc1cc(Nc2nccc(C(F)(F)F)n2)cc(-c2ccc(NCCCN)nc2)c1 [Example 7.26, N-[5-(3-methyl-5-{[4-(trifluoromethyl)pyrimidin-2-yl]amino}phenyl)pyridin-2-yl]propane-1,3-diamine]
23 | < 100 | Cc1cc(Nc2nccc(C(F)(F)F)n2)cc(-c2ccc(N3CCNC(=O)CC3)nc2)c1 [Example 7.27, 1-[5-(3-methyl-5-{[4-(trifluoromethyl)pyrimidin-2-yl]amino}phenyl)pyridin-2-yl]-1,4-diazepan-5-one]
24 | < 100 | CNC(=O)CN(C)c1ccc(-c2cc(C)cc(Nc3nccc(C(F)(F)F)n3)c2)cn1 [Example 7.28, N,N~2~-dimethyl-N~2~-[5-(3-methyl-5-{[4-(trifluoromethyl)pyrimidin-2-yl]amino}phenyl)pyridin-2-yl]glycinamide]
25 | < 100 | CNC(=O)CNc1ccc(-c2cc(C)cc(Nc3nccc(C(F)(F)F)n3)c2)cn1 [Example 7.29, N-methyl-N~2~-[5-(3-methyl-5-{[4-(trifluoromethyl)pyrimidin-2-yl]amino}phenyl)pyridin-2-yl]glycinamide]
26 | < 100 | Cc1cc(Nc2nccc(C(F)(F)F)n2)cc(-c2ccc(N(C)CCO)nc2)c1 [Example 7.30, 2-{methyl[5-(3-methyl-5-{[4-(trifluoromethyl)pyrimidin-2-yl]amino}phenyl)pyridin-2-yl]amino}ethanol]
27 | < 100 | Cc1cc(Nc2nccc(C(F)(F)F)n2)cc(-c2ccc(NCC(N)=O)nc2)c1 [Example 7.31, N~2~-[5-(3-methyl-5-{[4-(trifluoromethyl)pyrimidin-2-yl]amino}phenyl)pyridin-2-yl]glycinamide]
28 | < 100 | Cc1cc(Nc2nccc(C(F)(F)F)n2)cc(-c2ccc(N3CCC(C(N)=O)CC3)nc2)c1 [Example 7.32, 1-[5-(3-methyl-5-{[4-(trifluoromethyl)pyrimidin-2-yl]amino}phenyl)pyridin-2-yl]piperidine-4-carboxamide]
29 | 100 to 1000 | Cc1cc(Nc2nccc(C(F)(F)F)n2)cc(-c2ccc(N3CCN(C)C(=O)C3)nc2)c1 [Example 7.33, 1-methyl-4-[5-(3-methyl-5-{[4-(trifluoromethyl)pyrimidin-2-yl]amino}phenyl)pyridin-2-yl]piperazin-2-one]
30 | 100 to 1000 | Cc1cc(Nc2nccc(C(F)(F)F)n2)cc(-c2ccc(NC(C)(C)CO)nc2)c1 [Example 7.35, 2-methyl-2-{[5-(3-methyl-5-{[4-(trifluoromethyl)pyrimidin-2-yl]amino}phenyl)pyridin-2-yl]amino}propan-1-ol]
31 | < 100 | Cc1cc(Nc2nccc(C(F)(F)F)n2)cc(-c2ccc(N3CC(O)C3)nc2)c1 [Example 7.36, 1-[5-(3-methyl-5-{[4-(trifluoromethyl)pyrimidin-2-yl]amino}phenyl)pyridin-2-yl]azetidin-3-ol]
32 | < 100 | CC(=O)NCCNc1ccc(-c2cc(C)cc(Nc3nccc(C(F)(F)F)n3)c2)cn1 [Example 7.37, N-(2-{[5-(3-methyl-5-{[4-(trifluoromethyl)pyrimidin-2-yl]amino}phenyl)pyridin-2-yl]amino}ethyl)acetamide]
33 | < 100 | Cc1cc(Nc2nccc(C(F)(F)F)n2)cc(-c2ccc(N(C)CC(=O)O)nc2)c1 [Example 7.39, N-methyl-N-[5-(3-methyl-5-{[4-(trifluoromethyl)pyrimidin-2-yl]amino}phenyl)pyridin-2-yl]glycine]
34 | < 100 | Cc1cc(Nc2nccc(C(F)(F)F)n2)cc(-c2ccc(NCC(C)O)nc2)c1 (stereo not shown) [Example 7.40, 1-{[5-(3-methyl-5-{[4-(trifluoromethyl)pyrimidin-2-yl]amino}phenyl)pyridin-2-yl]amino}propan-2-ol]
